# Measurements from patent US12139520B2 (priority 2020, dated 2024).
# Numbered stars: 1 amine (or outer) side, 2 acyl side, 3 side chain; on linkers, the order of the positions; unused ones are H or OH. Bridge positions count the residues as written; N and C are the ends. Peptide text beside a SMILES is read from it. * marks the point of attachment. C20 diacid = O=C(O)CCCCCCCCCCCCCCCCCCC(=O)*; γGlu = O=C(O)[C@H](CCC(=O)[*:2])N[*:1]
# Molecular target: T1, hAMY3 receptor (Homo sapiens, UniProt O60896+P30988)
# T1 sequence (P30988 25-474): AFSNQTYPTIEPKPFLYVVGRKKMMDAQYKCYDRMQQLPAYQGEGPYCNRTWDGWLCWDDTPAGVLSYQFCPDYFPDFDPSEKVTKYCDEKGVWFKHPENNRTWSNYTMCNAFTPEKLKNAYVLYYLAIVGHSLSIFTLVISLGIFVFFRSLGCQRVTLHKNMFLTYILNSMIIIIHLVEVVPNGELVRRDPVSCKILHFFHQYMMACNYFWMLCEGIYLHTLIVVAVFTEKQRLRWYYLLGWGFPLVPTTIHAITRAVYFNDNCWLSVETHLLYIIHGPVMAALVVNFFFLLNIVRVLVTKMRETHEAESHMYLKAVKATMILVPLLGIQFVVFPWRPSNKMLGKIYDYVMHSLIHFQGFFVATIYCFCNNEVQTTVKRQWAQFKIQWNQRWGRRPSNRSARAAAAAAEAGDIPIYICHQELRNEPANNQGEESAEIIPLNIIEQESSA
# T1 sequence (O60896 24-148 partner): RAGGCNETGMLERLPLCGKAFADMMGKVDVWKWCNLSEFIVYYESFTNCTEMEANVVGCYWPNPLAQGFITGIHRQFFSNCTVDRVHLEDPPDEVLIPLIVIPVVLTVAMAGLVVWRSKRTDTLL
# Test: cAMP assay for in vitro receptor activation, hAMY3-R
# Assay type: cell-based
# Conditions: cAMP assay, hAMY3 receptor; read-out: hAMY3R EC50
# Summary of the method: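 Receptor activation was measured as cAMP accumulation in a monoclonal cell line stably overexpressing hAMY3. Stimulation with graded doses lasted 30 min at room temperature in the presence of 0.5 mM IBMX, with human amylin as positive control.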
smiles,measurement,value
CC[C@H](C)[C@H](NC(=O)[C@H](CCCCN)NC(=O)[C@H](CO)NC(=O)[C@H](CCCNC(=N)N)NC(=O)[C@@H]1CCCN1C(=O)[C@H](C)NC(=O)[C@@H](NC(=O)[C@H](CC(N)=O)NC(=O)[C@H](CC(=O)O)NC(=O)[C@H](CCCCN)NC(=O)[C@H](CC(=O)O)NC(=O)[C@H](CCCCN)NC(=O)[C@H](CC(=O)O)NC(=O)[C@@H](NC(=O)[C@H](Cc1ccccc1)NC(=O)[C@H](CCC(N)=O)NC(=O)[C@@H](NC(=O)[C@H](CC(C)C)NC(=O)[C@H](Cc1ccccc1)NC(=O)[C@H](CC(N)=O)NC(=O)[C@H](C)NC(=O)[C@H](CC(C)C)NC(=O)[C@H](CCCNC(=N)N)NC(=O)[C@H](CCC(N)=O)NC(=O)[C@@H](NC(=O)[C@H](C)NC(=O)[C@@H]1CSSC[C@H](NC(=O)[C@@H](N)CCCCN)C(=O)N[C@@H](CC(N)=O)C(=O)N[C@@H](Cc2ccccc2)C(=O)N[C@@H](C)C(=O)N[C@@H]([C@@H](C)O)C(=O)N1)[C@@H](C)O)C(C)C)[C@@H](C)O)C(C)C)C(=O)NCC(=O)N1CCC[C@H]1C(=O)N[C@@H](CCC(N)=O)C(=O)NCC(=O)N[C@@H](Cc1ccc(O)cc1)C(N)=O [compound 363] (H-KCNFATCATQRLANFLVQFTDKDKDNVAPRSKIGPQGY-NH2; disulfide 2-7; N-terminus assumed),EC50,0.01 nM
CC[C@H](C)[C@H](NC(=O)[C@H](CC(N)=O)NC(=O)[C@@H](NC(=O)[C@H](CCCNC(=N)N)NC(=O)[C@@H]1CCCN1C(=O)[C@H](C)NC(=O)[C@@H](NC(=O)[C@H](CC(N)=O)NC(=O)[C@H](CC(=O)O)NC(=O)[C@H](CCCCN)NC(=O)[C@H](CC(=O)O)NC(=O)[C@H](CCCCN)NC(=O)[C@H](CC(=O)O)NC(=O)[C@@H](NC(=O)[C@H](Cc1ccccc1)NC(=O)[C@H](CCC(N)=O)NC(=O)[C@H](Cc1ccc(O)cc1)NC(=O)[C@H](CC(C)C)NC(=O)[C@H](Cc1ccccc1)NC(=O)[C@H](Cc1c[nH]cn1)NC(=O)[C@H](C)NC(=O)[C@H](CC(C)C)NC(=O)[C@H](CCCNC(=N)N)NC(=O)[C@H](CCC(N)=O)NC(=O)[C@@H](NC(=O)[C@@H](NC(=O)[C@@H]1CSSC[C@H](NC(=O)CN)C(=O)N[C@@H](CCCNC(=N)N)C(=O)N[C@@H](Cc2ccccc2)C(=O)NCC(=O)N[C@@H]([C@@H](C)O)C(=O)N1)[C@@H](C)O)C(C)C)[C@@H](C)O)C(C)C)[C@@H](C)O)C(=O)NCC(=O)N1CCC[C@H]1C(=O)N[C@@H](CCC(N)=O)C(=O)NCC(=O)N[C@@H](Cc1ccc(O)cc1)C(N)=O [compound 364] (H-GCRFGTCTVQRLAHFLYQFTDKDKDNVAPRTNIGPQGY-NH2; disulfide 2-7),EC50,0.01 nM
CC[C@H](C)[C@H](NC(=O)[C@H](CCCCN)NC(=O)[C@@H](NC(=O)[C@H](CCCNC(=N)N)NC(=O)[C@@H]1CCCN1C(=O)[C@H](C)NC(=O)[C@@H](NC(=O)[C@H](CC(N)=O)NC(=O)[C@H](CC(=O)O)NC(=O)[C@H](CCCCN)NC(=O)[C@H](CC(=O)O)NC(=O)[C@H](CCCCN)NC(=O)[C@H](CC(=O)O)NC(=O)[C@@H](NC(=O)[C@H](Cc1ccccc1)NC(=O)[C@H](CCC(N)=O)NC(=O)[C@H](Cc1ccc(O)cc1)NC(=O)[C@H](CC(C)C)NC(=O)[C@H](Cc1ccccc1)NC(=O)[C@H](Cc1c[nH]cn1)NC(=O)[C@H](C)NC(=O)[C@H](CC(C)C)NC(=O)[C@H](CCCNC(=N)N)NC(=O)[C@H](CCC(N)=O)NC(=O)[C@@H](NC(=O)[C@@H](NC(=O)[C@@H]1CSSC[C@H](NC(=O)CN)C(=O)N[C@@H](CCCNC(=N)N)C(=O)N[C@@H](Cc2ccccc2)C(=O)NCC(=O)N[C@@H]([C@@H](C)O)C(=O)N1)[C@@H](C)O)C(C)C)[C@@H](C)O)C(C)C)[C@@H](C)O)C(=O)NCC(=O)N1CCC[C@H]1C(=O)N[C@@H](CCC(N)=O)C(=O)NCC(=O)N[C@@H](Cc1ccc(O)cc1)C(N)=O [compound 365] (H-GCRFGTCTVQRLAHFLYQFTDKDKDNVAPRTKIGPQGY-NH2; disulfide 2-7),EC50,0.012 nM
CC[C@H](C)[C@H](NC(=O)[C@H](CCCCN)NC(=O)[C@@H](NC(=O)[C@H](CCCNC(=N)N)NC(=O)[C@@H]1CCCN1C(=O)[C@H](C)NC(=O)[C@@H](NC(=O)[C@H](CC(N)=O)NC(=O)[C@H](CC(=O)O)NC(=O)[C@H](CCCCN)NC(=O)[C@H](CC(=O)O)NC(=O)[C@H](CCCCN)NC(=O)[C@H](CC(=O)O)NC(=O)[C@@H](NC(=O)[C@H](Cc1ccccc1)NC(=O)[C@H](CCC(N)=O)NC(=O)[C@H](Cc1ccc(O)cc1)NC(=O)[C@@H](NC(=O)[C@H](CCC(N)=O)NC(=O)[C@H](Cc1c[nH]cn1)NC(=O)[C@H](C)NC(=O)[C@H](CC(C)C)NC(=O)[C@H](CCCNC(=N)N)NC(=O)[C@H](CCC(N)=O)NC(=O)[C@@H](NC(=O)[C@@H](NC(=O)[C@@H]1CSSC[C@H](NC(=O)CN)C(=O)N[C@@H](CCCNC(=N)N)C(=O)N[C@@H](Cc2ccccc2)C(=O)NCC(=O)N[C@@H]([C@@H](C)O)C(=O)N1)[C@@H](C)O)C(C)C)[C@@H](C)CC)[C@@H](C)O)C(C)C)[C@@H](C)O)C(=O)NCC(=O)N1CCC[C@H]1C(=O)N[C@@H](CC(N)=O)C(=O)NCC(=O)N[C@@H](Cc1ccc(O)cc1)C(N)=O [compound 367] (H-GCRFGTCTVQRLAHQIYQFTDKDKDNVAPRTKIGPNGY-NH2; disulfide 2-7; N-terminus assumed),EC50,0.014 nM
CC[C@H](C)[C@H](NC(=O)[C@H](CCC(N)=O)NC(=O)[C@H](Cc1c[nH]cn1)NC(=O)[C@H](C)NC(=O)[C@H](CC(C)C)NC(=O)[C@H](CCCNC(=N)N)NC(=O)[C@H](CCC(N)=O)NC(=O)[C@@H](NC(=O)[C@@H](NC(=O)[C@@H]1CSSC[C@H](NC(=O)CN)C(=O)N[C@@H](CCCNC(=N)N)C(=O)N[C@@H](Cc2ccccc2)C(=O)NCC(=O)N[C@@H]([C@@H](C)O)C(=O)N1)[C@@H](C)O)C(C)C)C(=O)N[C@@H](Cc1ccc(O)cc1)C(=O)N[C@@H](CCC(N)=O)C(=O)N[C@@H](Cc1ccccc1)C(=O)N[C@H](C(=O)N[C@@H](CC(=O)O)C(=O)N[C@@H](CCCCN)C(=O)N[C@@H](CC(=O)O)C(=O)N[C@@H](CCCCN)C(=O)N[C@@H](CC(=O)O)C(=O)N[C@@H](CC(N)=O)C(=O)N[C@H](C(=O)N[C@@H](C)C(=O)N1CCC[C@H]1C(=O)N[C@@H](CCCNC(=N)N)C(=O)N[C@H](C(=O)N[C@@H](CCCCN)C(=O)N[C@H](C(=O)NCC(=O)N1CCC[C@H]1C(=O)N[C@@H](CCC(N)=O)C(=O)NCC(=O)N[C@@H](Cc1ccc(O)cc1)C(N)=O)C(C)C)[C@@H](C)O)C(C)C)[C@@H](C)O [compound 368] (H-GCRFGTCTVQRLAHQIYQFTDKDKDNVAPRTKVGPQGY-NH2; disulfide 2-7; N-terminus assumed),EC50,0.015 nM
CC(C)C[C@H](NC(=O)[C@H](CCCNC(=N)N)NC(=O)[C@H](CCC(N)=O)NC(=O)[C@@H](NC(=O)[C@@H](NC(=O)[C@@H]1CSSC[C@H](NC(=O)CN)C(=O)N[C@@H](CCCNC(=N)N)C(=O)N[C@@H](Cc2ccccc2)C(=O)NCC(=O)N[C@@H]([C@@H](C)O)C(=O)N1)[C@@H](C)O)C(C)C)C(=O)N[C@@H](C)C(=O)N[C@@H](Cc1c[nH]cn1)C(=O)N[C@@H](Cc1ccccc1)C(=O)N[C@@H](CC(C)C)C(=O)N[C@@H](Cc1ccc(O)cc1)C(=O)N[C@@H](CCC(N)=O)C(=O)N[C@@H](Cc1ccccc1)C(=O)N[C@H](C(=O)N[C@@H](CC(=O)O)C(=O)N[C@@H](CCCCN)C(=O)N[C@@H](CC(=O)O)C(=O)N[C@@H](CCCCN)C(=O)N[C@@H](CC(=O)O)C(=O)N[C@@H](CC(N)=O)C(=O)N[C@H](C(=O)N[C@@H](C)C(=O)N1CCC[C@H]1C(=O)N[C@@H](CCCNC(=N)N)C(=O)N[C@H](C(=O)N[C@@H](CCCCN)C(=O)N[C@H](C(=O)NCC(=O)N1CCC[C@H]1C(=O)N[C@@H](CCC(N)=O)C(=O)NCC(=O)N[C@@H](Cc1ccc(O)cc1)C(N)=O)C(C)C)[C@@H](C)O)C(C)C)[C@@H](C)O [compound 369] (H-GCRFGTCTVQRLAHFLYQFTDKDKDNVAPRTKVGPQGY-NH2; disulfide 2-7; N-terminus assumed),EC50,0.017 nM
CC[C@H](C)[C@H](NC(=O)[C@H](CCC(N)=O)NC(=O)[C@H](Cc1c[nH]cn1)NC(=O)[C@H](C)NC(=O)[C@H](CC(C)C)NC(=O)[C@H](CCCNC(=N)N)NC(=O)[C@H](CCC(N)=O)NC(=O)[C@@H](NC(=O)[C@@H](NC(=O)[C@@H]1CSSC[C@H](NC(=O)[C@H](CCCCN)NC(=O)CC[C@H](NC(=O)CCCCCCCCCCCCCCCCCCC(=O)O)C(=O)O)C(=O)N[C@@H](CC(N)=O)C(=O)N[C@@H](Cc2ccccc2)C(=O)N[C@@H](C)C(=O)N[C@@H]([C@@H](C)O)C(=O)N1)[C@@H](C)O)C(C)C)C(=O)N[C@@H](Cc1ccc(O)cc1)C(=O)N[C@@H](CCC(N)=O)C(=O)N[C@@H](Cc1ccccc1)C(=O)N[C@H](C(=O)N[C@@H](CC(=O)O)C(=O)N[C@@H](CCCCN)C(=O)N[C@@H](CC(=O)O)C(=O)N[C@@H](CCCCN)C(=O)N[C@@H](CC(=O)O)C(=O)N[C@@H](CC(N)=O)C(=O)N[C@H](C(=O)N[C@@H](C)C(=O)N1CCC[C@H]1C(=O)N[C@@H](CCCNC(=N)N)C(=O)N[C@H](C(=O)N[C@@H](CCC(=O)O)C(=O)N[C@H](C(=O)NCC(=O)N[C@@H](CO)C(=O)N[C@@H](CC(N)=O)C(=O)NCC(=O)N[C@@H](Cc1ccc(O)cc1)C(N)=O)C(C)C)[C@@H](C)O)C(C)C)[C@@H](C)O [compound 370] ({C20 diacid-γGlu}-KCNFATCTVQRLAHQIYQFTDKDKDNVAPRTEVGSNGY-NH2; disulfide 2-7),EC50,0.017 nM
